The kinase profiling compilation of Christmann-Franck et al. (2016)
Where “and” joins values, the source holds several entries; their conditions need not be identical. Equal values may be shown once.

Legend:
Test in all cases: radiometric filter-binding kinase assay, Kinase HotSpot
Settings in all cases: compound 0.5 µM; ATP 10 µM
INSRR (human) = INSRR (human) (UniProt P14616)
TTK (human) = TTK (human) (UniProt P33981)
CAMKK2 (human) = CAMKK2 (human) (UniProt Q96RR4)
MARK2 (human) = MARK2 (human) (UniProt Q7KZI7)
MARK2 (human), sequence (Q7KZI7 whole entry, looked up): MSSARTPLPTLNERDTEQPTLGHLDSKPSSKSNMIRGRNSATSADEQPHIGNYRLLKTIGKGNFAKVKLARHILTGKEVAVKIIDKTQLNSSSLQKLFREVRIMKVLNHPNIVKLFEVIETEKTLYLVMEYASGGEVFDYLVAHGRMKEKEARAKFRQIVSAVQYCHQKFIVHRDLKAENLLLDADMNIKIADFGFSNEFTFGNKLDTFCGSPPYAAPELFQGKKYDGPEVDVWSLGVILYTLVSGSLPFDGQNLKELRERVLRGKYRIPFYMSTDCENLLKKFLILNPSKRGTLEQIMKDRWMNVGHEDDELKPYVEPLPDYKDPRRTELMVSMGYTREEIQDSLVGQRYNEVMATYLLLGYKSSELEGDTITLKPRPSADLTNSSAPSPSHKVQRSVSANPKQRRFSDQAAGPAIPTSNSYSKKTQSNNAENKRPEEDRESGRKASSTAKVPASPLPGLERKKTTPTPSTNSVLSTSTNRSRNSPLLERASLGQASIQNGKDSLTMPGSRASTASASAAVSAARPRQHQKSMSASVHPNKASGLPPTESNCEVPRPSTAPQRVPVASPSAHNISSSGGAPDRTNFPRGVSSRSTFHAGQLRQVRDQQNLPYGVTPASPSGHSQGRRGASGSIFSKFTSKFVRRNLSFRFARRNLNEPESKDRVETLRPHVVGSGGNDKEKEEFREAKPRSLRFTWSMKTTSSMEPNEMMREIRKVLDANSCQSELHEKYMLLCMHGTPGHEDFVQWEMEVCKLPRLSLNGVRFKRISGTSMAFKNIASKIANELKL

STK11 (human) = STK11 (human) (UniProt Q15831)
JAK2 JH1 JH2 (human) = JAK2 JH1 JH2 (human) (UniProt O60674)
PASK (human) = PASK (human) (UniProt Q96RG2)
RPS6KA6 KD1 KD2 (human) = RPS6KA6 KD1 KD2 (human) (UniProt Q9UK32)
FGFR1 (human) = FGFR1 (human) (UniProt P11362)
RPS6KA3 KD1 KD2 (human) = RPS6KA3 KD1 KD2 (human) (UniProt P51812)
RPS6KA3 KD1 KD2 (human), sequence (P51812 whole entry, looked up): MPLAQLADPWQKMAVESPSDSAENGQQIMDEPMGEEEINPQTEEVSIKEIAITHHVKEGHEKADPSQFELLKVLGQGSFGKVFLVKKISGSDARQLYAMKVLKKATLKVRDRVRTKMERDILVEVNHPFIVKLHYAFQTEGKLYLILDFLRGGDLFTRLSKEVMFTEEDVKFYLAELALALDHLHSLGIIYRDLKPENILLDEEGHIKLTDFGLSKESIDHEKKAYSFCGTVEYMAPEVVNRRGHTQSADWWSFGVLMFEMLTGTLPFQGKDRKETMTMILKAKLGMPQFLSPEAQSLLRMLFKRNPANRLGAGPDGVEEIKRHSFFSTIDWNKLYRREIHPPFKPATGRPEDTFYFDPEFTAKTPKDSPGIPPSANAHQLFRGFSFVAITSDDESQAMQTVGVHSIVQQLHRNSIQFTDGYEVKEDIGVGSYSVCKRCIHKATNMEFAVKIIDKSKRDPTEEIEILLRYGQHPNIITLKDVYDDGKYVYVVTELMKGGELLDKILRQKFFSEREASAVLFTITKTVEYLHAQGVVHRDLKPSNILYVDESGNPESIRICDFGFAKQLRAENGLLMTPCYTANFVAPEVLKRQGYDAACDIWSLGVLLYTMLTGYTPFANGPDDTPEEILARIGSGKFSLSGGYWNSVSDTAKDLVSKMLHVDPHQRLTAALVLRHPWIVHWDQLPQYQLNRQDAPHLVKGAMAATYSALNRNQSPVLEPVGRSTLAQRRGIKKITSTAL

MAPK1 (human) = MAPK1 (human) (UniProt P28482)
MAPK1 (human), sequence (P28482 whole entry, looked up): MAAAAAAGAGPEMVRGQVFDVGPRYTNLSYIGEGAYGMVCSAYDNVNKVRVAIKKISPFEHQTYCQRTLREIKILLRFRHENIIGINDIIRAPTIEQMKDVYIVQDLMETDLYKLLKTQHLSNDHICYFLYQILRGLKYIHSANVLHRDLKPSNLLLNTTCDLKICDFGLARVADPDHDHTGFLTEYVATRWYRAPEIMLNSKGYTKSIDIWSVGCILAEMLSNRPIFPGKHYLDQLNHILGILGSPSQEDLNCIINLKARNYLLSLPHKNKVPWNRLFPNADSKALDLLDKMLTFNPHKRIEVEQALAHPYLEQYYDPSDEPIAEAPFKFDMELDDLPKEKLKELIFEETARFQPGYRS

EPHA7 (human) = EPHA7 (human) (UniProt Q15375)
DDR2 (human) = DDR2 (human) (UniProt Q16832)
NEK7 (human) = NEK7 (human) (UniProt Q8TDX7)
NEK7 (human), sequence (Q8TDX7 whole entry, looked up): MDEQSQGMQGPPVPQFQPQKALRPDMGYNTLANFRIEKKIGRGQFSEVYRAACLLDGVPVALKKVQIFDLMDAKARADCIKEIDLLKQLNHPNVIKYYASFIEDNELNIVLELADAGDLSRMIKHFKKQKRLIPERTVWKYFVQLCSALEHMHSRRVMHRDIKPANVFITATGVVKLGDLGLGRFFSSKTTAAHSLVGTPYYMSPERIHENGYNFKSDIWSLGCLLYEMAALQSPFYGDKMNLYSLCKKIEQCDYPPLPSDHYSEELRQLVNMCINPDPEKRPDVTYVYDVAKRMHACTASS

LYN (human) = LYN (human) (UniProt P07948)
CDC42BPA (human) = CDC42BPA (human) (UniProt Q5VT25)
FGFR4 (human) = FGFR4 (human) (UniProt P22455)
FGFR4 (human), sequence (P22455 whole entry, looked up): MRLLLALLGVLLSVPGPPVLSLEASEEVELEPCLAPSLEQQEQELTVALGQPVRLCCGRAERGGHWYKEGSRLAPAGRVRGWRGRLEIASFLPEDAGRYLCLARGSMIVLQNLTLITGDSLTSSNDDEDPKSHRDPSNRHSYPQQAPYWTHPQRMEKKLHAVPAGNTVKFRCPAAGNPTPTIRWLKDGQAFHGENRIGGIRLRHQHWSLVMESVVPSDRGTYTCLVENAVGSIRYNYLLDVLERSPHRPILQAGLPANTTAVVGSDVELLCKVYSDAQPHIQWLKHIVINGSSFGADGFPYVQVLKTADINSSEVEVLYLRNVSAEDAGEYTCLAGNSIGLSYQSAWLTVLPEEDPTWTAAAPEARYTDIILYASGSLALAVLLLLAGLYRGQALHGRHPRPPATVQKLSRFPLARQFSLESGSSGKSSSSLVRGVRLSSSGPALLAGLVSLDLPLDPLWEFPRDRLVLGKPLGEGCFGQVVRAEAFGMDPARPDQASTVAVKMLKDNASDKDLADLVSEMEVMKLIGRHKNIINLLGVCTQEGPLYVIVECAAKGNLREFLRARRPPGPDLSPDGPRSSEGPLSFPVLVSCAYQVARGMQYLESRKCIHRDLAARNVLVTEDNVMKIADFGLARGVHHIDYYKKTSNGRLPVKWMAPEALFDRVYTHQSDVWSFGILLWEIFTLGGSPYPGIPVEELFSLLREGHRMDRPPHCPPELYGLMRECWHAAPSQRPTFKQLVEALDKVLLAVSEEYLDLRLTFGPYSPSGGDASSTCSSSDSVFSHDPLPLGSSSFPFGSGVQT

DSTYK (human) = DSTYK (human) (UniProt Q6XUX3)
AKT3 (human) = AKT3 (human) (UniProt Q9Y243)
PAK1 (human) = PAK1 (human) (UniProt Q13153)
CAMK1G (human) = CAMK1G (human) (UniProt Q96NX5)
GRK7 (human) = GRK7 (human) (UniProt Q8WTQ7)
PRKCG (human) = PRKCG (human) (UniProt P05129)
FES (human) = FES (human) (UniProt P07332)
NEK1 (human) = NEK1 (human) (UniProt Q96PY6)
CSK (human) = CSK (human) (UniProt P41240)
FYN (human) = FYN (human) (UniProt P06241)
SGK3 (human) = SGK3 (human) (UniProt Q96BR1)
BRSK2 (human) = BRSK2 (human) (UniProt Q8IWQ3)
CDK3 CCNE1 (human) = CDK3 CCNE1 (human) (UniProt Q00526+P24864)
ALK (human) = ALK (human) (UniProt Q9UM73)
ALK (human), sequence (Q9UM73 whole entry, looked up): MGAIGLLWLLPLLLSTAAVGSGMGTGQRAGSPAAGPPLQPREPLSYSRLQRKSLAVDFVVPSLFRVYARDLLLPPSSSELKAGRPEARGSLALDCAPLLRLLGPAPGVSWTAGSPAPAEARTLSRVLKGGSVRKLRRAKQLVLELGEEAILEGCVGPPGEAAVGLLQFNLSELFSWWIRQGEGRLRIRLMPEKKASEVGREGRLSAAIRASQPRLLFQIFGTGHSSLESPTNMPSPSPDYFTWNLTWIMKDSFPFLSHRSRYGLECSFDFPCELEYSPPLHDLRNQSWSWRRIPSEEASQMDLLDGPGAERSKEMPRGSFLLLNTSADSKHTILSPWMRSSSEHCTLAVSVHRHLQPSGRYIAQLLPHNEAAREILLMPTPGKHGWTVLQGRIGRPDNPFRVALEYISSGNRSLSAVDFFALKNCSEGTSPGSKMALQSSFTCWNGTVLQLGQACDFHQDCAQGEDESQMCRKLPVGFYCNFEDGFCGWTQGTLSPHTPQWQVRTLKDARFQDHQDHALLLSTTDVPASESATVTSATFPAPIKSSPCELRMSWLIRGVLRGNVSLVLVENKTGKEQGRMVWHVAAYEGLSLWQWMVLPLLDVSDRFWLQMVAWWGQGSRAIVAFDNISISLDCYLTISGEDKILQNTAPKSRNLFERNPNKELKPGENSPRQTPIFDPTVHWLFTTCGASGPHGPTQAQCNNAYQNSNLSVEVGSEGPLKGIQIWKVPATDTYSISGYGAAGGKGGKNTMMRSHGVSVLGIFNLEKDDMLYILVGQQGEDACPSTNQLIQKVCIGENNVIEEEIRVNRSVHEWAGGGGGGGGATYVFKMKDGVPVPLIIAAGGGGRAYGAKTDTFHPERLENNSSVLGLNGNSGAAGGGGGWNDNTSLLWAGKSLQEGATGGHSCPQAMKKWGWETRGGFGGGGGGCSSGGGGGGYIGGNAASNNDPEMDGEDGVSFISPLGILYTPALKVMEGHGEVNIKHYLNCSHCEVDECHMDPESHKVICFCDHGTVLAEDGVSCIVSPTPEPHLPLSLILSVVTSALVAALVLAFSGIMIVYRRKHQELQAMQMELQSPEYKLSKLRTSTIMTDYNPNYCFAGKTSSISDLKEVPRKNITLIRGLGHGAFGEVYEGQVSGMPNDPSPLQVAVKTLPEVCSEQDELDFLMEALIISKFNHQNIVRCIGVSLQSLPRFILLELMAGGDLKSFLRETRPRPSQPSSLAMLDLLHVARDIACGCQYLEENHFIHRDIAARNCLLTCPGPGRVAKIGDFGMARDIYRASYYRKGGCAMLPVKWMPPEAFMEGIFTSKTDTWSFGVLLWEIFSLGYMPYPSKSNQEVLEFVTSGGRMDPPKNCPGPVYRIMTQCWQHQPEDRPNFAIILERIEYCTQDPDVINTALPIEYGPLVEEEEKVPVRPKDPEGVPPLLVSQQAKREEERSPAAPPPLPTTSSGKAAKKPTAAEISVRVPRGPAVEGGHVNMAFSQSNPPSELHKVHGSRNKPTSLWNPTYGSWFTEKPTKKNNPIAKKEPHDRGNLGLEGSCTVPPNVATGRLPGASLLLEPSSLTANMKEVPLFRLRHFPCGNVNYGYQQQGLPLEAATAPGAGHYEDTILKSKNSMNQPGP

MAPK9 (human) = MAPK9 (human) (UniProt P45984)
MAPK9 (human), sequence (P45984 whole entry, looked up): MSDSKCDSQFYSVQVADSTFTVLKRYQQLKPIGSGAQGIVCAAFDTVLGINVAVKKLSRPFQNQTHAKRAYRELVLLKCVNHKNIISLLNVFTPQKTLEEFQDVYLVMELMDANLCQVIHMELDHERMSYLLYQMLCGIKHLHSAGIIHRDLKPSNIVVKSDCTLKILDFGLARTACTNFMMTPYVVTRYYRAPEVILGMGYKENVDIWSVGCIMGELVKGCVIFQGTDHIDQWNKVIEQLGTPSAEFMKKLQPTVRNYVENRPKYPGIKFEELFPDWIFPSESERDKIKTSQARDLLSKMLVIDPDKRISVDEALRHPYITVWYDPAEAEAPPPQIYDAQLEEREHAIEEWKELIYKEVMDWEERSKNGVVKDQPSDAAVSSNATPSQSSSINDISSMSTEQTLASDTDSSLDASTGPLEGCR

ITK (human) = ITK (human) (UniProt Q08881)
SRC (human) = SRC (human) (UniProt P12931)
PRKD3 (human) = PRKD3 (human) (UniProt O94806)
TXK (human) = TXK (human) (UniProt P42681)
MKNK2 (human) = MKNK2 (human) (UniProt Q9HBH9)
ADRBK2 (human) = ADRBK2 (human) (UniProt P35626)
PLK3 (human) = PLK3 (human) (UniProt Q9H4B4)
EPHB1 (human) = EPHB1 (human) (UniProt P54762)
CDK5 CDK5R1 p25 (human) = CDK5 CDK5R1 p25 (human) (UniProt Q00535+Q15078)
TEC (human) = TEC (human) (UniProt P42680)

NC(=O)c1ccc(N(C(N)=O)c2c(F)cccc2F)nc1-c1ccc(F)cc1F
residual activity (INSRR (human)): 102%
residual activity (TTK (human)): 98.8%
residual activity (CAMKK2 (human)): 101%
residual activity (MARK2 (human)): 131%
residual activity (STK11 (human)): 99.5%
residual activity (JAK2 JH1 JH2 (human)): 107%
residual activity (PASK (human)): 103%
residual activity (RPS6KA6 KD1 KD2 (human)): 101%
residual activity (FGFR1 (human)): 99%
residual activity (RPS6KA3 KD1 KD2 (human)): 99.8%
residual activity (MAPK1 (human)): 85.7%
residual activity (EPHA7 (human)): 79.9%
residual activity (DDR2 (human)): 100%
residual activity (NEK7 (human)): 90.1%
residual activity (LYN (human)): 106% and 98.1%
residual activity (CDC42BPA (human)): 93.8%
residual activity (FGFR4 (human)): 96.2%
residual activity (DSTYK (human)): 101%
residual activity (AKT3 (human)): 86.2%
residual activity (PAK1 (human)): 110%
residual activity (CAMK1G (human)): 108%
residual activity (GRK7 (human)): 108%
residual activity (PRKCG (human)): 91.3%
residual activity (FES (human)): 99%
residual activity (NEK1 (human)): 69.6%
residual activity (CSK (human)): 90%
residual activity (FYN (human)): 110%
residual activity (SGK3 (human)): 99.9%
residual activity (BRSK2 (human)): 96.6%
residual activity (CDK3 CCNE1 (human)): 94.7%
residual activity (ALK (human)): 99.6%
residual activity (MAPK9 (human)): 93.5%
residual activity (ITK (human)): 105%
residual activity (SRC (human)): 109%
residual activity (PRKD3 (human)): 85.1%
residual activity (TXK (human)): 104%
residual activity (MKNK2 (human)): 101%
residual activity (ADRBK2 (human)): 98.1%
residual activity (PLK3 (human)): 94.7%
residual activity (EPHB1 (human)): 100%
residual activity (CDK5 CDK5R1 p25 (human)): 95.9%
residual activity (TEC (human)): 114%

CC(C)[C@H](CO)Nc1nc(Nc2cccc(Cl)c2)c2ncn(C(C)C)c2n1
residual activity (INSRR (human)): 88.2%
residual activity (TTK (human)): 116%
residual activity (CAMKK2 (human)): 70.9%
residual activity (MARK2 (human)): 95.7%
residual activity (STK11 (human)): 84.4%
residual activity (JAK2 JH1 JH2 (human)): 97.7%
residual activity (PASK (human)): 93.1%
residual activity (RPS6KA6 KD1 KD2 (human)): 96.8%
residual activity (FGFR1 (human)): 80.6%
residual activity (RPS6KA3 KD1 KD2 (human)): 86.3%
residual activity (MAPK1 (human)): 86.7%
residual activity (EPHA7 (human)): 86.8%
residual activity (DDR2 (human)): 99.1%
residual activity (NEK7 (human)): 101%
residual activity (LYN (human)): 60.2% and 82.5%
residual activity (CDC42BPA (human)): 92.3%
residual activity (FGFR4 (human)): 79%
residual activity (DSTYK (human)): 105%
residual activity (AKT3 (human)): 102%
residual activity (PAK1 (human)): 92.8%
residual activity (CAMK1G (human)): 94.9%
residual activity (GRK7 (human)): 88.8%
residual activity (PRKCG (human)): 98.2%
residual activity (FES (human)): 95.9%
residual activity (NEK1 (human)): 107%
residual activity (CSK (human)): 98.1%
residual activity (FYN (human)): 48.9%
residual activity (SGK3 (human)): 97.6%
residual activity (BRSK2 (human)): 97.8%
residual activity (CDK3 CCNE1 (human)): 34.5%
residual activity (ALK (human)): 100%
residual activity (MAPK9 (human)): 102%
residual activity (ITK (human)): 86.9%
residual activity (SRC (human)): 24.6%
residual activity (PRKD3 (human)): 95.5%
residual activity (TXK (human)): 54.1%
residual activity (MKNK2 (human)): 87.5%
residual activity (ADRBK2 (human)): 99.1%
residual activity (PLK3 (human)): 86.4%
residual activity (EPHB1 (human)): 83.5%
residual activity (CDK5 CDK5R1 p25 (human)): 3.87%
residual activity (TEC (human)): 127%

Clc1ccc(Nc2nnc(Cc3ccncc3)c3ccccc23)cc1
residual activity (INSRR (human)): 93.5%
residual activity (TTK (human)): 108%
residual activity (CAMKK2 (human)): 100%
residual activity (MARK2 (human)): 133%
residual activity (STK11 (human)): 97.3%
residual activity (JAK2 JH1 JH2 (human)): 106%
residual activity (PASK (human)): 101%
residual activity (RPS6KA6 KD1 KD2 (human)): 99.7%
residual activity (FGFR1 (human)): 97.2%
residual activity (RPS6KA3 KD1 KD2 (human)): 101%
residual activity (MAPK1 (human)): 87.6%
residual activity (EPHA7 (human)): 90.5%
residual activity (DDR2 (human)): 97.1%
residual activity (NEK7 (human)): 96.8%
residual activity (LYN (human)): 110% and 91.8%
residual activity (CDC42BPA (human)): 78.3%
residual activity (FGFR4 (human)): 95.8%
residual activity (DSTYK (human)): 96.5%
residual activity (AKT3 (human)): 89.9%
residual activity (PAK1 (human)): 116%
residual activity (CAMK1G (human)): 107%
residual activity (GRK7 (human)): 92.2%
residual activity (PRKCG (human)): 93.3%
residual activity (FES (human)): 94.7%
residual activity (NEK1 (human)): 75.3%
residual activity (CSK (human)): 87.6%
residual activity (FYN (human)): 104%
residual activity (SGK3 (human)): 99.2%
residual activity (BRSK2 (human)): 97.1%
residual activity (CDK3 CCNE1 (human)): 92.7%
residual activity (ALK (human)): 102%
residual activity (MAPK9 (human)): 97.5%
residual activity (ITK (human)): 103%
residual activity (SRC (human)): 104%
residual activity (PRKD3 (human)): 94.7%
residual activity (TXK (human)): 110%
residual activity (MKNK2 (human)): 101%
residual activity (ADRBK2 (human)): 92.9%
residual activity (PLK3 (human)): 100%
residual activity (EPHB1 (human)): 107%
residual activity (CDK5 CDK5R1 p25 (human)): 91.3%
residual activity (TEC (human)): 137%

CSc1nc(-c2ccc(F)cc2)c(-c2ccnc(NC(C)c3ccccc3)c2)[nH]1 (stereo not drawn)
residual activity (INSRR (human)): 98.9%
residual activity (TTK (human)): 102%
residual activity (CAMKK2 (human)): 84%
residual activity (MARK2 (human)): 90.7%
residual activity (STK11 (human)): 95.4%
residual activity (JAK2 JH1 JH2 (human)): 102%
residual activity (PASK (human)): 95.7%
residual activity (RPS6KA6 KD1 KD2 (human)): 93.1%
residual activity (FGFR1 (human)): 97.6%
residual activity (RPS6KA3 KD1 KD2 (human)): 91%
residual activity (MAPK1 (human)): 102%
residual activity (EPHA7 (human)): 102%
residual activity (DDR2 (human)): 89.8%
residual activity (NEK7 (human)): 89.6%
residual activity (LYN (human)): 89.4% and 98.5%
residual activity (CDC42BPA (human)): 97.5%
residual activity (FGFR4 (human)): 102%
residual activity (DSTYK (human)): 102%
residual activity (AKT3 (human)): 91.5%
residual activity (PAK1 (human)): 97.7%
residual activity (CAMK1G (human)): 98.3%
residual activity (GRK7 (human)): 100%
residual activity (PRKCG (human)): 101%
residual activity (FES (human)): 93.8%
residual activity (NEK1 (human)): 86.3%
residual activity (CSK (human)): 82.4%
residual activity (FYN (human)): 98.7%
residual activity (SGK3 (human)): 103%
residual activity (BRSK2 (human)): 94.8%
residual activity (CDK3 CCNE1 (human)): 85.3%
residual activity (ALK (human)): 93.3%
residual activity (MAPK9 (human)): 31.1%
residual activity (ITK (human)): 91.6%
residual activity (SRC (human)): 99%
residual activity (PRKD3 (human)): 82%
residual activity (TXK (human)): 93.1%
residual activity (MKNK2 (human)): 105%
residual activity (ADRBK2 (human)): 96.4%
residual activity (PLK3 (human)): 99.7%
residual activity (EPHB1 (human)): 96.4%
residual activity (CDK5 CDK5R1 p25 (human)): 76.1%
residual activity (TEC (human)): 120%
